From patent US10238631B2, “Sesquiterpene derivatives and their use in inflammation or cancer treatment” (Academia Sinica, priority 2014, dated 2019)

Columns and labels:
[1] = system: LPS-induced nitric oxide (NO) production in RAW 264.7 cells; assay: Nitric oxide production in LPS-stimulated macrophages (Griess); format: cell-based, mouse; settings: Mus musculus; LPS-stimulated RAW264.7, nitrite 24 h after LPS
Procedure, shortened: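 RAW 264.7 macrophages (2×10^5 cells/well) were pretreated with compound for 1 h and then stimulated with 100 ng/μL LPS for 24 h. NO was measured as nitrite in the medium by the Griess reaction. Viability was checked in parallel by MTT.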

[2] = system: MCF-7 (ER+, Her2−) human breast cancer cells; assay: MTT cell viability assay, MCF-7 cells; format: cell-based; settings: MCF7, 24 h, read-out: IC50 on cell viability, MCF-7 (ER+, Her2−)
Procedure, shortened: (§1)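 Cells (2×10^3 to 1×10^4 cells/well) were seeded overnight, then exposed to compounds for 24 h to 72 h. Growth was measured by MTT colorimetric assay, with viability calculated as OD570 of treated over vehicle (0.5% DMSO) control ×100.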

[3] = system: RAW264.7 (normal macrophage); assay: MTT cell viability assay, RAW264.7 macrophages; format: cell-based, mouse; settings: Mus musculus, RAW264.7, 24 h
Procedure, shortened: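 RAW264.7 macrophages (2×10^5 cells/well) pretreated with compounds 1 h, then incubated 24 h with or without 100 ng/μL LPS. Viability by MTT colorimetric assay run in parallel with Griess nitrite measurement.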

[4] = system: TS/A (ER+, Her2−) murine mammary cancer cells; assay: MTT cell viability assay, TS/A cells; format: cell-based; settings: Mus musculus, 24 h, read-out: IC50 on cell viability, TS/A (ER+, Her2−)
Procedure, shortened: as §1

[5] = system: A2058 (BRAF mutation); assay: MTT cell viability assay, A2058 melanoma; format: cell-based, human; settings: Homo sapiens, A2058, 24 h
Procedure, shortened: (§2)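 Cells seeded at 2×10^3 to 1×10^4 cells/well overnight, then exposed to compounds for 24 h to 72 h. Growth measured by MTT colorimetric assay; viability expressed as OD570 treated/OD570 vehicle (0.5% DMSO) ×100.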

[6] = system: melanoma cell lines B16-F10, MeWo, A375, A2058, HTB-68; assay: MTT cell viability assay, all melanoma cell lines; format: cell-based; settings: 24 h, read-out: IC50 values over all types of melanoma cell lines
Experimental: Normal or cancer cells (2×10^3 to 1×10^4 cells/well) were seeded in 96-well plate for overnight and treated with different compounds for 24 h to 72 h. Cells growth were determined by MTT-based colorimetric assays according to. Viability of the test cells treated with vehicle (0.5% DMSO) only was defined as 100% viable. Survival of cells after treatment with DETDs was calculated using the following formula: viable cell number (%)=OD570 (treated cell culture)/OD570 (vehicle control)×100.
Several genes are involved in melanoma development and pathology; specifically, mutation in V-raf murine sarcoma viral oncogene homolog B1 (B-RAF) occurs approximately 50-60% and in neuroblastoma RAS viral oncogene homolog (N-RAS) occurs about 30% of malignant melanomas. A spectrum of wild-type or mutated melanoma cell lines including B16-F10, MeWo, A375, A2058, HTB-68, and melanocyte were used to study anti-melanoma cell proliferation activity of parental phytocompound DET and newly synthesized DETDs.

[7] = system: A375 (BRAF mutation); assay: MTT cell viability assay, A375 melanoma; format: cell-based, human; settings: Homo sapiens, A-375, 24 h, 24 h, MTT; read-out: IC50 on cell viability, A375 (BRAF mutation)
Procedure, shortened: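 A375 cells were seeded at 2×10^3 to 1×10^4 per well overnight and then exposed to compounds for 24 h to 72 h. Viability was measured by MTT absorbance at OD570 relative to 0.5% DMSO vehicle (100%), and IC50 was derived from it. Combination with PLX4032 was scored by combination index.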

[8] = system: Melanocyte (Normal cells); assay: MTT cell viability assay, normal melanocytes; format: cell-based, human; settings: Homo sapiens, Melanocyte, 24 h
Procedure, shortened: as §2

[9] = system: MDA-MB-231 (ER−, PR−, Her2−) human breast cancer cells; assay: MTT cell viability assay, MDA-MB-231 cells; format: cell-based; settings: for IC50: Homo sapiens, MDA-MB-231, 24 h, read-out: IC50 on cell viability, MDA-MB-231 (ER−, PR−, Her2−)
Procedure, shortened: as §1

[10] = system: HTB-68 (NRAS mutation); assay: MTT cell viability assay, HTB-68 melanoma; format: cell-based, human; settings: Homo sapiens, 24 h
Procedure, shortened: as §2

[11] = system: MeWo (No NRAS or BRAF mutation); assay: MTT cell viability assay, MeWo melanoma; format: cell-based, human; settings: Homo sapiens, MeWo, 24 h
Procedure, shortened: as §2

[12] = system: B16-F10 (NRAS mutation); assay: MTT cell viability assay, B16-F10 melanoma; format: cell-based; settings: Mus musculus, B16-F10, 24 h, 24 h, read-out: IC50 on cell viability, B16-F10 (NRAS mutation)
Procedure, shortened: as §2

[13] = system: M10 normal mammary epithelial cells; assay: MTT cell viability assay, M10 normal cells; format: cell-based, human; settings: Homo sapiens, Epithelial cell, 24 h
Procedure, shortened: as §1

[14] = system: MDA-MB-231 lung metastasis; assay: Lung metastasis of MDA-MB-231 cells in SCID mice; format: in vivo, mouse; settings: post-treatment, 5 mg/kg i.p. every three days
Experimental: Female SCID mice (5 weeks old, average body weight 19.59±1.26 g) were assigned to 8 groups: PIX group (5 mg/kg paclitaxel), DETD-35-2 group (2 mg/kg DETD-35), DETD-35-10 group (10 mg/kg DETD-35). PTX-5+DETD-35-2 group (5 mg/kg paclitaxel and 2 mg/kg DETD-35 administration alternatively for eleven doses of paclitaxel (PTX) and ten doses of DETD-35 in total), tumor (vehicle) group (5% DMSO), and sham group (5% DMSO). Pre-DETD-35-10 group was the mice administered 10 mg/kg DETD-35 every two days for three doses before the i.v. injection of 1×10^6 MDA-MB-231 tumor cells at day 0. All other drug or compounds were administered i.p. every three days starting from day 1. At the end of experiment (day 71), the test mice were sacrificed by cervical dislocation. The lung, liver, kidney, and spleen organs were removed and recorded weights and calculated for organ index (% of organ weight/body weight). The number of tumor colonies on lungs of test mice was counted.

[15] = system: MDA-MB-231 cell migration; assay: Boyden chamber migration assay; format: cell-based, human; settings: 24 h
Experimental: (§3) To test the anti-migratory and anti-invasive effect of DET. DETD-35 and PTX. Boyden chambers assay was carried out. The lower well of the chamber (6.5 mm diameter, […]; Costar. Cambridge, Mass., USA) was added 10% fetal bovine serum (FBS) as a chemoattractant and filled with DMEM culture medium containing vehicle (DMSO, 0.05%), DET (2.5 and 4 μM). DETD-35 (1.25 and 2.5 μM), or PTX (2.5 and 4 μM). MDA-MB-231 cells were placed into the upper chamber (5×10^4 cells per insert) with the medium containing 0.1% FBS. After 24 h incubation at 37° C. in a 5% CO2 atmosphere, non-migrating cells were scraped from the upper surface of the membrane using a cotton swab, and the migrated cells remaining in the well were fixed and stained with DAPI solution (4,6-diamidino-2-phenylindole, 1 μg/ml). The migrating cells were counted in three fields at 20× original magnifications by inverted fluorescence microscopy. To test the anti-invasive effect of the compounds, 8-μm filters were pre-coating with Matrigel (30 μg per filter) and incubated at 37° C. for 2 h, then followed the protocol of migration assay descried about.

[16] = system: MDA-MB-231 cell invasion; assay: Boyden chamber (Matrigel) invasion assay; format: cell-based, human; settings: 24 h
Experimental: as §3

[17] = higher concentrations (DET 4 μM, DETD-35 2.5 μM, PTX 4 μM)
[18] = lower concentrations (DET 2.5 μM, DETD-35 1.25 μM, PTX 2.5 μM)

Row | IC50 [1] | IC50 [2] | IC50 [4] | IC50 [5] | IC50 [6] | IC50 [7] | IC50 [9] | IC50 [10] | IC50 [11] | IC50 [12] | SMILES | IC50 [3] | IC50 [8] | IC50 [13] | reduction of number of tumor foci in lungs vs tumor control [14] | reduction of cell migration vs vehicle control [15, 17] | suppression of cell migration vs vehicle control [15, 18] | IC60 on MDA-MB-231 cells ([9]; 24 h) | inhibition of cell invasion [16, 17] | inhibition of cell invasion [16, 18]
1 | 3.6 µM | 3.8 µM | 2.1 µM | 5 µM | 1.6 to 9.9 µM | 2.1 µM | 3.8 µM | 3.8 µM | 8.3 µM | 5.6 µM | C=C1C(=O)OC2CC3=C[C@@H](C/C(C)=C/[C@@H](OC(=O)Cc4csc5ccccc45)[C@H]12)OC3=O (stereo partly drawn) [DETD-58] | > 10 µM | > 10 µM | 5.8 µM | – | – | – | – | – | –
2 | 3 µM | 3.3 µM | 2.1 µM | 4.1 µM | 1.6 to 9.9 µM | 2 µM | 2.7 µM | 4.9 µM | 4.8 µM | 4.9 µM | C=C1C(=O)OC2CC3=C[C@@H](C/C(C)=C/[C@@H](OC(=O)/C=C/c4ccc(OCC)cc4)[C@H]12)OC3=O (stereo partly drawn) [DETD-60] | > 10 µM | > 10 µM | 4 µM | – | – | – | – | – | –
3 | 3.1 µM | 3.6 µM | 2.5 µM | 5.2 µM | 1.6 to 9.9 µM | 2.6 µM | 3.4 µM | 5.5 µM | 6.6 µM | 6 µM | C=C1C(=O)OC2CC3=C[C@@H](C/C(C)=C/[C@@H](OC(=O)/C=C/c4ccc5c(c4)OCO5)[C@H]12)OC3=O (stereo partly drawn) [DETD-61] | > 10 µM | > 10 µM | 4.7 µM | – | – | – | – | – | –
4 | – | – | – | – | – | – | – | – | – | – | CC(=O)O[C@H]1C(=O)[C@@]2(C)[C@H]([C@H](OC(=O)c3ccccc3)[C@]3(O)C[C@H](OC(=O)[C@H](O)[C@@H](NC(=O)c4ccccc4)c4ccccc4)C(C)=C1C3(C)C)[C@]1(OC(C)=O)CO[C@@H]1C[C@@H]2O [PTX, paclitaxel] | – | – | – | 62% | 88% | 87% | 0.0238 µM | 90% | 85%
